From PubChem BioAssay (NCI)
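Results reflect a 48-hour exposure of cells in 96-well plates to compound at five concentrations. GI50 is the concentration that inhibits growth by half. Definition used: TGI = concentration required for complete inhibition of growth.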

Columns and labels:
Test in all cases: growth of human tumour cells (NCI), 48 h
CAKI-1 renal = tested on: CAKI-1 renal
T-47D breast = tested on: T-47D breast
DU-145 prostate = tested on: DU-145 prostate
SF-268 CNS = tested on: SF-268 CNS
RXF 393 renal = tested on: RXF 393 renal
OVCAR-5 ovarian = tested on: OVCAR-5 ovarian
COLO 205 colon = tested on: COLO 205 colon
NCI-H460 lung = tested on: NCI-H460 lung
MDA-N = tested on: MDA-N
NCI-H226 lung = tested on: NCI-H226 lung

Structure (SMILES): C(=N\Nc1ncc(-c2cc3cc4c(cc3o2)OCO4)s1)/c1c[nH]c2ccccc12
- GI50 (CAKI-1 renal): 1.18 µM
- TGI (CAKI-1 renal): 3.21 µM
- GI50 (T-47D breast): 2.09 µM
- TGI (T-47D breast): > 100 µM
- GI50 (DU-145 prostate): 0.739 µM
- TGI (DU-145 prostate): 3.31 µM
- GI50 (SF-268 CNS): 0.589 µM
- TGI (SF-268 CNS): 2.86 µM
- GI50 (RXF 393 renal): 1.33 µM
- TGI (RXF 393 renal): 2.78 µM

Structure (SMILES): COC12C=C/C(=C(/C(=O)OCc3ccncn3)C(=O)CCCCCCCCC3(OC)C=C/C(=C(/C(=O)OCc4ccncn4)C(=O)CCCCCCCC1)O3)O2
- GI50 (OVCAR-5 ovarian): 0.334 µM
- TGI (OVCAR-5 ovarian): 4.81 µM
- GI50 (COLO 205 colon): 0.348 µM
- TGI (COLO 205 colon): 1.32 µM
- GI50 (CAKI-1 renal): 0.349 µM
- TGI (CAKI-1 renal): 2.21 µM
- GI50 (T-47D breast): 0.28 µM
- TGI (T-47D breast): 25.7 µM
- GI50 (DU-145 prostate): 0.484 µM
- TGI (DU-145 prostate): 2.72 µM
- GI50 (SF-268 CNS): 0.314 µM
- TGI (SF-268 CNS): 1.92 µM
- GI50 (NCI-H460 lung): 0.319 µM
- TGI (NCI-H460 lung): 1.02 µM

Structure (SMILES): CC(C)(C)c1cc(C(O)(C(=O)O)C(=O)O)cc(C(C)(C)C)c1O
- TGI (MDA-N): > 100 µM
- TGI (OVCAR-5 ovarian): > 100 µM
- TGI (COLO 205 colon): > 100 µM
- TGI (CAKI-1 renal): > 100 µM
- TGI (T-47D breast): > 100 µM
- TGI (DU-145 prostate): > 100 µM
- TGI (SF-268 CNS): > 100 µM
- TGI (NCI-H226 lung): > 100 µM
- TGI (RXF 393 renal): > 100 µM

Structure (SMILES): C=CCOc1ccc(C2c3c([nH][nH]c3=O)CC(O)(OCC)C2C(=O)OCC)cc1OC (stereo unspecified)
- TGI (MDA-N): > 100 µM
- TGI (OVCAR-5 ovarian): > 100 µM
- TGI (COLO 205 colon): > 100 µM
- TGI (CAKI-1 renal): > 100 µM
- TGI (T-47D breast): > 100 µM
- TGI (DU-145 prostate): > 100 µM
- TGI (SF-268 CNS): > 100 µM
- TGI (NCI-H460 lung): > 100 µM

Structure (SMILES): O=C1NN=C(c2ccc(Cl)cc2)CC1C1C(=O)N(c2ccccc2)N=C1c1ccccc1 (stereo unspecified)
- TGI (MDA-N): > 100 µM
- TGI (OVCAR-5 ovarian): 80.7 µM
- TGI (COLO 205 colon): > 100 µM
- TGI (T-47D breast): > 100 µM
- TGI (DU-145 prostate): > 100 µM
- TGI (SF-268 CNS): > 100 µM
- TGI (NCI-H460 lung): 80.4 µM
- TGI (NCI-H226 lung): 91.8 µM
- TGI (RXF 393 renal): 70.9 µM

Structure (SMILES): COc1ccc2oc(S(=O)(=O)N3CC(CCl)c4ccc([N+](=O)[O-])cc43)cc2c1 (stereo unspecified)
- TGI (MDA-N): 11 µM
- TGI (OVCAR-5 ovarian): > 100 µM
- TGI (COLO 205 colon): 0.322 µM
- TGI (CAKI-1 renal): 0.239 µM
- TGI (T-47D breast): 79.8 µM
- TGI (DU-145 prostate): 0.317 µM
- TGI (SF-268 CNS): > 39.8 µM
- TGI (NCI-H460 lung): 0.401 µM
- TGI (NCI-H226 lung): 1.43 µM

Structure (SMILES): N#CCCNCCN(CCN(C(=O)Nc1ccccc1)c1ccccc1)C(=O)Nc1ccccc1
- TGI (MDA-N): > 100 µM
- TGI (OVCAR-5 ovarian): > 100 µM
- TGI (COLO 205 colon): 46.3 µM
- TGI (T-47D breast): > 100 µM
- TGI (DU-145 prostate): > 100 µM
- TGI (SF-268 CNS): > 100 µM
- TGI (NCI-H460 lung): > 100 µM
- TGI (NCI-H226 lung): > 100 µM
- TGI (RXF 393 renal): > 100 µM

Structure (SMILES): COc1ccc2c(c1)OCC1(O)Cc3ccccc3OC21 (stereo unspecified)
- TGI (MDA-N): > 100 µM
- TGI (OVCAR-5 ovarian): > 100 µM
- TGI (COLO 205 colon): > 100 µM
- TGI (CAKI-1 renal): > 100 µM
- TGI (T-47D breast): > 100 µM
- TGI (DU-145 prostate): > 100 µM
- TGI (SF-268 CNS): > 100 µM
- TGI (NCI-H226 lung): > 100 µM

Structure (SMILES): Cc1cc2c(cc1-c1cc3c(cc1C)C(C(C)C)=C(O)C(=O)/C3=C\Nc1nc(-c3ccccc3)cs1)/C(=C/Nc1nc(-c3ccccc3)cs1)C(=O)C(O)=C2C(C)C
- TGI (MDA-N): > 100 µM
- TGI (COLO 205 colon): > 100 µM
- TGI (CAKI-1 renal): > 100 µM
- TGI (T-47D breast): > 100 µM
- TGI (DU-145 prostate): 55 µM
- TGI (SF-268 CNS): 72 µM
- TGI (NCI-H460 lung): 46 µM
- TGI (NCI-H226 lung): 58.4 µM
- TGI (RXF 393 renal): 54.5 µM

Structure (SMILES): C=Nc1ccc([N+](=O)[O-])cc1
- TGI (OVCAR-5 ovarian): > 100 µM
- TGI (COLO 205 colon): > 100 µM
- TGI (CAKI-1 renal): > 100 µM
- TGI (SF-268 CNS): > 100 µM
- TGI (NCI-H460 lung): > 100 µM
- TGI (NCI-H226 lung): > 100 µM

Structure (SMILES): O=S(=O)(c1ccccc1)n1c(C(O)c2ccncc2)cc2ccccc21 (stereo unspecified)
- TGI (MDA-N): > 100 µM
- TGI (OVCAR-5 ovarian): > 100 µM
- TGI (COLO 205 colon): > 100 µM
- TGI (CAKI-1 renal): > 100 µM
- TGI (T-47D breast): > 100 µM
- TGI (DU-145 prostate): > 100 µM
- TGI (NCI-H460 lung): > 100 µM
- TGI (NCI-H226 lung): > 100 µM
- TGI (RXF 393 renal): > 100 µM

Structure (SMILES): CCOC(=O)C1=CN=C2C(=O)N(c3ccccc3)N(C)C2(C)C1=N (stereo unspecified)
- TGI (MDA-N): > 100 µM
- TGI (OVCAR-5 ovarian): > 100 µM
- TGI (COLO 205 colon): > 100 µM
- TGI (CAKI-1 renal): > 100 µM
- TGI (DU-145 prostate): > 100 µM
- TGI (NCI-H460 lung): > 100 µM
- TGI (NCI-H226 lung): > 100 µM
- TGI (RXF 393 renal): > 100 µM

Structure (SMILES): CCN(CC)CCCCCCCCNc1c2ccc(Cl)cc2nc2ccc(OC)cc12
- GI50 (OVCAR-5 ovarian): 1.64 µM
- TGI (OVCAR-5 ovarian): 3.99 µM
- GI50 (COLO 205 colon): 1.43 µM
- TGI (COLO 205 colon): 2.88 µM
- GI50 (CAKI-1 renal): 2.37 µM
- TGI (CAKI-1 renal): 6.67 µM
- GI50 (T-47D breast): 2.82 µM
- TGI (T-47D breast): 6.91 µM
- GI50 (DU-145 prostate): 1.55 µM
- TGI (DU-145 prostate): 3.18 µM
- GI50 (SF-268 CNS): 1.7 µM
- TGI (SF-268 CNS): 3.76 µM
- GI50 (NCI-H460 lung): 0.883 µM
- TGI (NCI-H460 lung): 2.56 µM
- GI50 (NCI-H226 lung): 1.74 µM
- TGI (NCI-H226 lung): 3.74 µM
- GI50 (RXF 393 renal): 0.763 µM
- TGI (RXF 393 renal): 2.09 µM

Structure (SMILES): O=C1C=Cc2c(Cl)sc(Cl)c21
- TGI (OVCAR-5 ovarian): 24.8 µM
- TGI (CAKI-1 renal): 4.57 µM
- TGI (T-47D breast): > 22.7 µM
- TGI (DU-145 prostate): 5.29 µM
- TGI (SF-268 CNS): 3.58 µM
- TGI (NCI-H460 lung): 45.2 µM
- TGI (NCI-H226 lung): 16.1 µM
- TGI (RXF 393 renal): 4.28 µM

Structure (SMILES): Cc1ccccc1N=C(N)NC#N
- TGI (MDA-N): > 100 µM
- TGI (OVCAR-5 ovarian): > 100 µM
- TGI (COLO 205 colon): > 100 µM
- TGI (CAKI-1 renal): > 100 µM
- TGI (DU-145 prostate): > 100 µM
- TGI (SF-268 CNS): > 100 µM
- TGI (NCI-H460 lung): > 100 µM
- TGI (RXF 393 renal): > 100 µM

Structure (SMILES): O=[N+]([O-])C(/C(Cl)=C(/Cl)N1CCOCC1)=C1\NCCO1
- TGI (MDA-N): > 100 µM
- TGI (OVCAR-5 ovarian): > 100 µM
- TGI (COLO 205 colon): > 100 µM
- TGI (CAKI-1 renal): > 100 µM
- TGI (T-47D breast): > 100 µM
- TGI (DU-145 prostate): > 100 µM
- TGI (SF-268 CNS): > 100 µM
- TGI (NCI-H460 lung): > 100 µM
- TGI (NCI-H226 lung): > 100 µM

Structure (SMILES): c1ccc2c(c1)c1c(n2CCOCCN2CCCCC2)CCCC1
- TGI (MDA-N): 28.7 µM
- TGI (OVCAR-5 ovarian): 25.7 µM
- TGI (COLO 205 colon): 26 µM
- TGI (T-47D breast): 35.2 µM
- TGI (DU-145 prostate): 32.6 µM
- TGI (SF-268 CNS): 37.7 µM
- TGI (NCI-H460 lung): 28.2 µM
- TGI (NCI-H226 lung): 38.5 µM

Structure (SMILES): C[C@]12CC[C@H]3[C@@H](CCC4=CC(=O)C=C[C@@]43O)[C@@H]1CCC2=O
- TGI (MDA-N): > 100 µM
- TGI (OVCAR-5 ovarian): > 100 µM
- TGI (COLO 205 colon): > 100 µM
- TGI (CAKI-1 renal): > 100 µM
- TGI (T-47D breast): > 100 µM
- TGI (DU-145 prostate): > 100 µM
- TGI (NCI-H460 lung): > 100 µM
- TGI (NCI-H226 lung): > 100 µM
- TGI (RXF 393 renal): > 100 µM

Structure (SMILES): COc1ccc(-c2oc3ccc(C)cc3c(=O)c2O)cc1
- TGI (MDA-N): > 100 µM
- TGI (OVCAR-5 ovarian): > 100 µM
- TGI (COLO 205 colon): > 100 µM
- TGI (CAKI-1 renal): > 100 µM
- TGI (T-47D breast): > 100 µM
- TGI (DU-145 prostate): > 100 µM
- TGI (SF-268 CNS): > 100 µM
- TGI (NCI-H226 lung): > 100 µM
- TGI (RXF 393 renal): > 100 µM

Structure (SMILES): CN(C(=O)C12C3C4(C(=O)O)C1(C(=O)N(C)C(C)(C)C)C1C2(C(=O)O)C3(C(=O)N(C)C(C)(C)C)C14C(=O)N(C)C(C)(C)C)C(C)(C)C (stereo unspecified)
- TGI (MDA-N): > 100 µM
- TGI (OVCAR-5 ovarian): > 100 µM
- TGI (COLO 205 colon): > 100 µM
- TGI (CAKI-1 renal): > 100 µM
- TGI (T-47D breast): > 100 µM
- TGI (DU-145 prostate): > 100 µM
- TGI (SF-268 CNS): > 100 µM
- TGI (NCI-H460 lung): > 100 µM
- TGI (RXF 393 renal): > 100 µM
